From patent publication US20090196862A1, “High dosage Vitamin D” (priority 2008, published 2009)

Experiments:
[1] = system: atherosclerotic plaque; test: Coronary / atherosclerotic plaque by heart CT scan score in patients; assay type: in vivo, human; conditions: for effect on plaques (heart CT scan score): patients with coronary plaques
Description: In clinical practice with regard to plaque formation, the present inventor observed that blood serum levels of D3 of about 50 ng/mL provide sufficient effect. Below 50 ng/mL, there is an incremental effect, with a very small effect as low as 20 ng/mL, but a significant effect emerging at 40-45 ng/mL. By 50 ng/mL, there is a significant and often sufficient effect. About 50 ng/mL of 25-hydroxy-vitamin D [25(OH)D] in blood serum provides a reasonably strong effect against plaque buildup.

[2] = Clinical observation of lipids, inflammatory levels and blood pressure on oral D3; assay type: in vivo, human; conditions: oral administration
Description: The present inventor observed lipid effects (reduced triglycerides, a raise in the levels of HDL [“good cholesterol”] and a reduction in LDL particles [“bad cholesterol”]) from oral supplementation of an oil-based preparation of D3.

[3] = literature report; cited from earlier work

SMILES	blood serum level of D3 at which a significant effect emerges (plaque formation) ([1]; clinical practice)	blood serum level of D3 providing sufficient effect on plaque formation ([1]; clinical practice)	blood serum level of D3 with a very small effect (plaque formation) ([1]; clinical practice)	effect on plaques (heart CT scan score) ([1]; listed as oral D3)	effect on plaques (heart CT scan score) ([1]; listed as vitamin D)	blood pressure [2]	inflammatory levels [2]	conversion of D2 to D3 in humans [3]
C=C1CC[C@H](O)C/C1=C/C=C1\CCC[C@]2(C)[C@@H]([C@H](C)CCCC(C)C)CC[C@@H]12 [D3, cholecalciferol]	40 to 45 ng/mL	about 50 ng/mL	20 ng/mL	positive effect	decreased evidence of plaques	reductions	reductions	–
C=C1CC[C@H](O)C/C1=C/C=C1\CCC[C@]2(C)[C@@H]([C@H](C)/C=C/[C@H](C)C(C)C)CC[C@@H]12 [D2, ergocalciferol]	–	–	–	–	–	–	–	≤ 70%
